Assay results as given in publication PMC9570109, “Improved Trimethylangelicin Analogs for Cystic Fibrosis: Design, Synthesis and Preliminary Screening” (International Journal of Molecular Sciences, 2022).

How the values were obtained:
salmon testes DNA = experiment: Photoadduct formation with DNA under UVA irradiation (TLC analysis); conditions: 15 J/cm2 UVA
Method: The total energy that struck the sample was monitored by means of a radiometer (Variocontrol, Waldmann, Villingen-Schwenningen, Germany), equipped with a Variocontrol UV Sensor (Waldmann). The radiant power emitted by the UVA lamp was about […]. The samples were maintained at room temperature during irradiation.
The test compounds were dissolved in ethanol (2 mg/mL) and salmon testes DNA (Sigma-Aldrich) was dissolved in 10 mM NaCl and 1 mM EDTA solution (1.5 × 10^−3 M). Each test solution (250 μL) was added dropwise to the DNA solution (5 mL). The mixture was irradiated with 15 J/cm2 UVA light in a glass dish for 1 h. After irradiation, the DNA was precipitated with 1 M NaCl and two volumes of cold ethanol; the precipitated DNA was collected, washed with 80% ethanol, dried, and then dissolved in water. To obtain hydrolysis, the final solution was acidified with 1 M HCl, heated at 100 °C for 1 h, neutralized with NaOH and extracted three times with chloroform. Then, all of the organic layers were collected, dried under a high vacuum, and dissolved in ethanol. The hydrolyzed mixtures were separated by thin layer chromatography (TLC; F254 plates, 0.25 mm, Merck, Darmstadt, Germany) eluting with EtOAc/EtOH (9:1). The plates were analyzed with a Mineral Light Lamp VL-4LC VILBERT-LOURMAT (Vilber, Marne-la-Vallée, France).

[1] = system: Salmonella typhimurium TA97A; experiment: Ames mutagenicity assay, plate incorporation, TA97A; assay type: cell-based
Method: (§1) The mutagenicity assay was performed for the test compounds following the plate incorporation method with the histidine-requiring Salmonella typhimurium mutant TA97A, TA98, TA100, and TA1535 strains purchased by Molecular Toxicology Inc. (Boone, NC, USA; moltox.com). All strains (100 µL per plate of fresh overnight cultures) were checked with and without the addition of 0.5 mL of a 5% S9 exogenous metabolic activator (S9 mix). The lyophilized post-mitochondrial supernatant S9 mix (Aroclor 1254-induced, Sprague–Dawley male rat liver in 0.154 M KCl solution), commonly used for the activation of pro-mutagens in mutagenic metabolites (Molecular Toxicology, Inc., Boone, NC, USA), was stored at −80 °C before use. The concentration tested for all the samples were 5, 10, 20, 50, and 100 µL/plate from a stock solution of 500 nM. A fully grown culture of the appropriate tester strain (0.1 mL) was added to 2 mL molten top agar (0.6% agar, 0.6% NaCl, 0.5 mM L-histidine/biotin solution) at 46 °C, together with 0.1 mL of each sample solution at different concentrations, and 0.5 mL S9 mix for assays with metabolic activation. The ingredients were thoroughly mixed and poured onto minimal glucose agar plates (1.5% agar in 2% Vogel–Bonner medium E with 5% glucose solution). DMSO was used as negative a control (100 µL/plate). Positive controls were prepared as follows: 2-aminoanthracene (2 µg/plate) and 2-nitrofluorene (2 µg/plate) for TA 97A, TA98 and TA1535 with and without metabolic activator (S9 mix), respectively; 2-aminoanthracene (2 µg/plate) and sodium azide (2 µg/plate) for TA100, with and without metabolic activator (S9 mix), respectively. The plates were incubated at 37 °C for 72 h and then his+ revertants were checked and counted using a Colony Counter 560 Suntex (Antibioticos, Italy). A sample was considered mutagenic when the observed number of colonies was at least twofold over the spontaneous level of revertants. All determinations were made in triplicate. Statistical analysis: relative standard deviations were calculated using the statistical software STATISTICA 6.0 (StatSoft, Italia srl, Vigonza, Italy). […]
(§2) Salmonella typhimurium TA97A Salmonella typhimurium TA98 Salmonella typhimurium TA100 Salmonella typhimurium 1535 […]
(§3) average SD t/c average SD t/c average SD t/c average SD t/c average SD t/c average SD t/c average SD t/c average SD t/c […]
(§4) *Significant values according to Ames computation (Maron & Ames, 1983); DMSO, C+: negative and positive controls respectively; SD: Standard Deviation; t/c: number of revertant colonies in treated plates/number of revertant colonies in […]

[2] = system: Salmonella typhimurium TA98; experiment: Ames mutagenicity assay, plate incorporation, TA98; assay type: cell-based
Method: as §1, §2, §3, §4

[3] = system: Salmonella typhimurium 1535; experiment: Ames mutagenicity assay, plate incorporation, TA1535; assay type: cell-based
Method: as §1, §2, §3, §4

[4] = +S9, 5 µL/plate of 500 nM stock
[5] = +S9, 10 µL/plate of 500 nM stock
[6] = +S9, 20 µL/plate of 500 nM stock
[7] = +S9, 50 µL/plate of 500 nM stock
[8] = +S9, 100 µL/plate of 500 nM stock
[9] = -S9, 5 µL/plate of 500 nM stock
[10] = -S9, 10 µL/plate of 500 nM stock
[11] = -S9, 20 µL/plate of 500 nM stock
[12] = -S9, 50 µL/plate of 500 nM stock
[13] = -S9, 100 µL/plate of 500 nM stock
[14] = TA98, +S9, 5 µL/plate of 500 nM stock
[15] = TA98, +S9, 10 µL/plate of 500 nM stock
[16] = TA98, +S9, 20 µL/plate of 500 nM stock
[17] = TA98, +S9, 50 µL/plate of 500 nM stock
[18] = TA98, +S9, 100 µL/plate of 500 nM stock
[19] = TA98, -S9, 5 µL/plate of 500 nM stock
[20] = TA98, -S9, 10 µL/plate of 500 nM stock
[21] = TA98, -S9, 20 µL/plate of 500 nM stock
[22] = TA98, -S9, 50 µL/plate of 500 nM stock
[23] = TA98, -S9, 100 µL/plate of 500 nM stock
[24] = 1535, +S9, 5 µL/plate of 500 nM stock
[25] = 1535, +S9, 10 µL/plate of 500 nM stock
[26] = 1535, +S9, 20 µL/plate of 500 nM stock
[27] = 1535, +S9, 50 µL/plate of 500 nM stock
[28] = 1535, +S9, 100 µL/plate of 500 nM stock
[29] = 1535, -S9, 5 µL/plate of 500 nM stock
[30] = 1535, -S9, 10 µL/plate of 500 nM stock
[31] = 1535, -S9, 20 µL/plate of 500 nM stock
[32] = 1535, -S9, 50 µL/plate of 500 nM stock
[33] = 1535, -S9, 100 µL/plate of 500 nM stock

Cc1cc2c(-c3ccccc3)cc(=O)oc2c2c(C)coc12 [4-PhDMA]
photoadduct formation with DNA upon UVA irradiation (salmon testes DNA): only the unchanged bands
revertant colonies, average [1, 4]: 87.0
t/c (revertant colonies treated/untreated plates) [1, 4]: 0.8
revertant colonies, average [1, 5]: 117.0
t/c (revertant colonies treated/untreated plates) [1, 5]: 1.1
revertant colonies, average [1, 6]: 98.0
t/c (revertant colonies treated/untreated plates) [1, 6]: 0.9
revertant colonies, average [1, 7]: 94.0
t/c (revertant colonies treated/untreated plates) [1, 7]: 0.9
revertant colonies, average [1, 8]: 109.5
t/c (revertant colonies treated/untreated plates) [1, 8]: 1.0
revertant colonies, average [1, 9]: 79.5
t/c (revertant colonies treated/untreated plates) [1, 9]: 1.0
revertant colonies, average [1, 10]: 82.5
t/c (revertant colonies treated/untreated plates) [1, 10]: 1.1
revertant colonies, average [1, 11]: 82.0
t/c (revertant colonies treated/untreated plates) [1, 11]: 1.1
revertant colonies, average [1, 12]: 82.5
t/c (revertant colonies treated/untreated plates) [1, 12]: 1.1
revertant colonies, average [1, 13]: 82.5
t/c (revertant colonies treated/untreated plates) [1, 13]: 1.1
revertant colonies, average [2, 14]: 47.0
t/c (revertant colonies treated/untreated plates) [2, 14]: 1.0
revertant colonies, average [2, 15]: 49.0
t/c (revertant colonies treated/untreated plates) [2, 15]: 1.1
revertant colonies, average [2, 16]: 52.5
t/c (revertant colonies treated/untreated plates) [2, 16]: 1.1
revertant colonies, average [2, 17]: 47.5
t/c (revertant colonies treated/untreated plates) [2, 17]: 1.0
revertant colonies, average [2, 18]: 47.5
t/c (revertant colonies treated/untreated plates) [2, 18]: 1.0
revertant colonies, average [2, 19]: 39.0
t/c (revertant colonies treated/untreated plates) [2, 19]: 1.0
revertant colonies, average [2, 20]: 42.0
t/c (revertant colonies treated/untreated plates) [2, 20]: 1.1
revertant colonies, average [2, 21]: 38.5
t/c (revertant colonies treated/untreated plates) [2, 21]: 1.0
revertant colonies, average [2, 22]: 41.0
t/c (revertant colonies treated/untreated plates) [2, 22]: 1.1
revertant colonies, average [2, 23]: 41.0
t/c (revertant colonies treated/untreated plates) [2, 23]: 1.1
revertant colonies, average [3, 24]: 10.5
t/c (revertant colonies treated/untreated plates) [3, 24]: 1.0
revertant colonies, average [3, 25]: 13.5
t/c (revertant colonies treated/untreated plates) [3, 25]: 1.3
revertant colonies, average [3, 26]: 11.0
t/c (revertant colonies treated/untreated plates) [3, 26]: 1.0
revertant colonies, average [3, 27]: 10.5
t/c (revertant colonies treated/untreated plates) [3, 27]: 1.0
revertant colonies, average [3, 28]: 11.0
t/c (revertant colonies treated/untreated plates) [3, 28]: 1.0
revertant colonies, average [3, 29]: 15.0
t/c (revertant colonies treated/untreated plates) [3, 29]: 1.4
revertant colonies, average [3, 30]: 13.0
t/c (revertant colonies treated/untreated plates) [3, 30]: 1.2
revertant colonies, average [3, 31]: 5.5
t/c (revertant colonies treated/untreated plates) [3, 31]: 0.5
revertant colonies, average [3, 32]: 10.0
t/c (revertant colonies treated/untreated plates) [3, 32]: 0.9
revertant colonies, average [3, 33]: 7.0
t/c (revertant colonies treated/untreated plates) [3, 33]: 0.6
